Reference: US11028095B2, “Spiro-lactam and bis-spiro-lactam NMDA receptor modulators and uses thereof” (Aptinyx Inc., priority 2016, dated 2021)
Like-named read-outs stand apart in the source and are kept apart here. Values belong to the compound of their own block, whether it stands above or below them.

Legend:
[1] = biological target: T1, NMDAR2A expressing HEK cell membranes (Homo sapiens, UniProt Q05586+Q12879); experiment: NMDAR agonist assay, [3H]MK-801 binding, NMDAR2A; type: biochemical; settings: [3H]MK-801 binding
T1 construct: expressed in transfected cells; host or cells: HEK cells (membrane extract)
Experimental: (§1) (nonequilibrium conditions).
(§2) The baseline value was determined from the best fit curve of the DPM values modeled using the GraphPad program and the log(agonist) vs. response(three parameters) algorithm was then subtracted from all points in the dataset.

[2] = biological target: T2, NMDAR2A expressing HEK cell membranes (Homo sapiens, UniProt Q12879); experiment: NMDAR agonist assay, [3H]MK-801 binding, NMDAR2A; type: biochemical; settings: 50 μM glutamate
T2 construct: expressed in transfected cells; host or cells: HEK cells (membrane extract)
Experimental: as §1, §2

[3] = biological target: T3, NMDAR2B expressing HEK cell membranes (Homo sapiens, UniProt Q13224); experiment: NMDAR agonist assay, [3H]MK-801 binding, NMDAR2B; type: biochemical; settings: 50 μM glutamate
T3 construct: expressed in transfected cells; host or cells: HEK cells (membrane extract)
Experimental: as §1, §2

[4] = biological target: T4, NMDAR2B expressing HEK cell membranes (Homo sapiens, UniProt Q05586+Q13224); experiment: NMDAR agonist assay, [3H]MK-801 binding, NMDAR2B; type: biochemical; settings: for EC50: [3H]MK-801 binding
T4 construct: expressed in transfected cells; host or cells: HEK cells (membrane extract)
Experimental: as §1, §2

[5] = Oral pharmacokinetics (plasma, brain, CSF); type: in vivo; parameters: Cmax: unit: ng/mL; settings: Sprague Dawley rats, per os, 10 mg/kg; for Tmax: normal saline
Experimental: In another experiment, Sprague Dawley rats were dosed per os using a normal saline formulation containing 10 mg/kg of the compounds identified in the table below. Plasma, brain, and CSF samples were analyzed at various time points over a 24 hour period. The table below summarizes the results of the oral pharmacokinetics.

[6] = Microsomal stability (Human); type: in vitro ADME; settings: human microsomes
Experimental: (§3) Microsomal stability of disclosed compounds was investigated. The following table indicates the percent of compound remaining after 60 minutes.

Plasma stability (Rat) = type: in vitro ADME
Experimental: (§4) Plasma stability of disclosed compounds was investigated. The following table indicates the percent of compound remaining after 60 minutes.

IV pharmacokinetics = type: in vivo; parameters: C0: unit: ng/mL; settings: Sprague Dawley rats, 2 mg/kg, normal saline
Experimental: Sprague Dawley rats were dosed intravenously using a normal saline formulation containing 2 mg/kg of the compounds identified in the below table. The table below summarizes the results of the IV pharmacokinetics.

[7] = Microsomal stability (Rat); type: in vitro ADME; settings: rat microsomes
Experimental: as §3

Plasma stability (Human) = type: in vitro ADME
Experimental: as §4

[8] = test system: positive (hedonic) 50-kHz ultrasonic vocalizations (USVs); experiment: Positive Emotional Learning (PEL) test; type: in vivo; settings: rat, PO, dose 0.1 mg/kg, one hour after administration
Experimental: Experiments were conducted as described in Burgdorf et al., “The effect of selective breeding for differential rates of 50-kHz ultrasonic vocalizations on emotional behavior in rats,” Devel. […] Rat 50-kHz ultrasonic vocalization (hedonic USVs) is a validated model for the study of positive affective state and is best elicited by rough-and-tumble play.
The PEL assay measures the acquisition of positive (hedonic) 50-kHz ultrasonic vocalizations (USVs) to a social stimulus, heterospecific rough and tumble play stimulation. Heterospecific rough-and-tumble play stimulation was administered by the experimenter's right hand. One hour after administration of test compound or vehicle negative control (0.5% sodium carboxymethyl cellulose in 0.9% sterile saline vehicle), animals received 3 min of heterospecific rough-and-tumble play that consisted of alternating 15 sec blocks of heterospecific play and 15 sec of no-stimulation. […] Frequency modulated 50-kHz USVs that occurred during each of the no-stimulation periods were quantified to measure PEL. Animals were not habituated to play stimulation before testing. Positive emotional learning was measured during the conditioned stimulus (CS) trials preceding the tickle unconditioned stimulus (UCS) trials. Animals received 15 second trials consisting of 6 CS and 6 UCS trials each (3 min total).

[9] = 50 μM glutamate, read-out: NMDAR2A: log EC50 (converted)
[10] = 50 μM glutamate, read-out: NMDAR2B log EC50 (converted)
[11] = Sprague Dawley, rat, plasma, po
[12] = Sprague Dawley, rat, in vivo, iv

T2 sequence (Q12879 23-1464, other chains not shown): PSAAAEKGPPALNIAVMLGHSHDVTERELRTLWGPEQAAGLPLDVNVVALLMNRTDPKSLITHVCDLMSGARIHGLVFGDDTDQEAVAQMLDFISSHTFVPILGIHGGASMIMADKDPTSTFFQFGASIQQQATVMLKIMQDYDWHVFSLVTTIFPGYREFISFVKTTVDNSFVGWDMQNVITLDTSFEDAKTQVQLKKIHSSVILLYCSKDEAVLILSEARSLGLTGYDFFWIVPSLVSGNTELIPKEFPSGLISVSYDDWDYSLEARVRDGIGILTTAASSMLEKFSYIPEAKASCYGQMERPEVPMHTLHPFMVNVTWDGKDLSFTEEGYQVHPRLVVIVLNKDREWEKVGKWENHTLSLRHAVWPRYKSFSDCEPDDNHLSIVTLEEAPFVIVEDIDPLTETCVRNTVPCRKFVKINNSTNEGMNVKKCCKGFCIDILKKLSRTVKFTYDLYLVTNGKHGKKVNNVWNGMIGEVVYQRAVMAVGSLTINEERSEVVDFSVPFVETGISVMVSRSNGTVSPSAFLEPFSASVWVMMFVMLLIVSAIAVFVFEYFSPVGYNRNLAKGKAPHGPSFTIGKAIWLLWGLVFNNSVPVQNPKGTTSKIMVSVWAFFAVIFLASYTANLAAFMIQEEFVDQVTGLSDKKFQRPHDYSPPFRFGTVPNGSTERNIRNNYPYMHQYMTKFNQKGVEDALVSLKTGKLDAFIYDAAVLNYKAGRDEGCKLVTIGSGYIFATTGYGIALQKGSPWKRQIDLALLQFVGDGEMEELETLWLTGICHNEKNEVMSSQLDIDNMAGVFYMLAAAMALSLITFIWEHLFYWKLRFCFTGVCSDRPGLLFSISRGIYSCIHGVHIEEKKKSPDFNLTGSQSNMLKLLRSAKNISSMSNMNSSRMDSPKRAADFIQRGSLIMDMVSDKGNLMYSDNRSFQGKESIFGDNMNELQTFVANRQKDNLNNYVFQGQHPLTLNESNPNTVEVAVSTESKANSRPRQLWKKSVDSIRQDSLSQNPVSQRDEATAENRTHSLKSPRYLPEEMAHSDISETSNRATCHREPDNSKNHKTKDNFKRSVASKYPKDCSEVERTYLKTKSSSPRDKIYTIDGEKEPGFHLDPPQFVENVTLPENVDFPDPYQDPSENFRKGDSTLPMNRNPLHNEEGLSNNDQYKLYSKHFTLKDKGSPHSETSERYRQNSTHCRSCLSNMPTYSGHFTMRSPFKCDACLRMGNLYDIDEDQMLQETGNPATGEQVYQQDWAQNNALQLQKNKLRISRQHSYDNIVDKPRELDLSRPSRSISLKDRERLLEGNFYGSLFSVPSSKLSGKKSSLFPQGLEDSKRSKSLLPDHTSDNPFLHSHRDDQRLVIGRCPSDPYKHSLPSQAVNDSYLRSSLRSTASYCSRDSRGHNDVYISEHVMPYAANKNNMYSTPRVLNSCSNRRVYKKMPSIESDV
T1 sequence (Q12879 23-1464, other chains not shown): as above
T4 sequence (Q13224 27-1484, other chains not shown): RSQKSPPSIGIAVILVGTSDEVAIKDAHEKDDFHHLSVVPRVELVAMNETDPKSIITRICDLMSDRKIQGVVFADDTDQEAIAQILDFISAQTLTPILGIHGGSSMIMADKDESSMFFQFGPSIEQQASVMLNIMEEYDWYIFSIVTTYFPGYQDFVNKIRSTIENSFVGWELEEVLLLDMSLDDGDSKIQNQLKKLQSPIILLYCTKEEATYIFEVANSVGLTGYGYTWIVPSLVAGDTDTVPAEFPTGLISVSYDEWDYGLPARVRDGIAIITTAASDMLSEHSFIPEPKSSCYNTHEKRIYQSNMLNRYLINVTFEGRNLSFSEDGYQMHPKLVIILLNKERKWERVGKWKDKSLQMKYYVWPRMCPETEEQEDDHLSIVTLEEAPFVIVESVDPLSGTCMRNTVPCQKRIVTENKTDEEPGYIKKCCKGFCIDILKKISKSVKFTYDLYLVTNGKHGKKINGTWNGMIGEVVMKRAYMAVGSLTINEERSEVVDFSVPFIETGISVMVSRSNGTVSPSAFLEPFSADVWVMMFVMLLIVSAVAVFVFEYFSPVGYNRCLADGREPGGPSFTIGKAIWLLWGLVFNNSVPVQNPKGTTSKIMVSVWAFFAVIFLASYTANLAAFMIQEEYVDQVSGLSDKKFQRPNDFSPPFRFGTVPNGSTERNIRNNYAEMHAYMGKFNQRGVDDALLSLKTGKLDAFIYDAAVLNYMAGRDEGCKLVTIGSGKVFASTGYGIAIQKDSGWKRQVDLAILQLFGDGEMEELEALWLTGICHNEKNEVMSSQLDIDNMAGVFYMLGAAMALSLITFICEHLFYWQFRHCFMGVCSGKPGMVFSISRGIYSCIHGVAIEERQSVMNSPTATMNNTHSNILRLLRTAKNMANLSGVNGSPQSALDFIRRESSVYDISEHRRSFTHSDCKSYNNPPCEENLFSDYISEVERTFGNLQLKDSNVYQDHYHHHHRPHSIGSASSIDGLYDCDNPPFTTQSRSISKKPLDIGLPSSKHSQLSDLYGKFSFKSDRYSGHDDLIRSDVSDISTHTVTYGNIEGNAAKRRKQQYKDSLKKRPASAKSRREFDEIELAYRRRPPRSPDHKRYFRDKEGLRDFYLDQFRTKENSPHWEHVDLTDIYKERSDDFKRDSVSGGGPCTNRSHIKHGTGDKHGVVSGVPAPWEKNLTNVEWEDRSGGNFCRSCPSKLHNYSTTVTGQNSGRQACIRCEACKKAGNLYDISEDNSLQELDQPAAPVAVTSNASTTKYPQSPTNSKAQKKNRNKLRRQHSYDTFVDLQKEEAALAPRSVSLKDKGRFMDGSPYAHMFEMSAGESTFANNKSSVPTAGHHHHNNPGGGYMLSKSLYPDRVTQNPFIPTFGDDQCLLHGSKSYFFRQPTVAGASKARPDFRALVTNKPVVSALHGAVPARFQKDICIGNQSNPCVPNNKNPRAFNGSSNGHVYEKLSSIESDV

SMILES: O=C1NCC12CCC1(CNC1=O)N2 (single isomer, unassigned) [AK, 2,5,8-triazadispiro[3.1.36.24]undecane-1,7-dione]
EC50 ([1]; NMDAR2A: log EC50, 50 μM glutamate): > 100 nM
NMDAR2A: % maximal [3H]MK-801 binding relative to 1 mM glycine [2]: − (−=0)
NMDAR2B: % maximal [3H]MK-801 binding relative to 1 mM glycine [3]: − (−=0)
EC50 ([4]; NMDAR2B: log EC50, 50 μM glutamate): > 100 nM

EC50 [1, 9]: > 100 nM
NMDAR2A: % maximal [3H]MK-801 binding relative to 1 mM glycine [2]: − (−=0)
NMDAR2B: % maximal [3H]MK-801 binding relative to 1 mM glycine [3]: + (<100%=+)
EC50 [4, 10]: < 1 nM
SMILES: O=C1NCC12CN(Cc1ccccc1)C1(CNC1=O)C2 (single isomer, unassigned) [DQ, 10-benzyl-2,8,10-triazadispiro[3.1.3^6.2^4]undecane-1,7-dione]

EC50 ([2]; [3H]MK-801 binding, read-out: NMDAR2A: log EC50 (converted)): < 1 nM
NMDAR2A: % maximal [3H]MK-801 binding relative to 1 mM glycine [2]: + (<100%=+)
% F [5]: 5%
AUClast [5]: 599.6 ng·h/mL
CSF Cmax [5]: 0 ng/mL
Brain Cmax [5]: 0 ng/mL
Tmax [5]: 64.8 min
Cmax ([5]; plasma): 144.2 ng/mL
Microsomal (Human): percent of compound remaining after 60 minutes [6]: 100%
Plasma (Rat): percent of compound remaining after 60 minutes (Plasma stability (Rat)): 95%
AUClast (IV pharmacokinetics): 2601.7 ng·h/mL
C0 (IV pharmacokinetics): 5143.2 ng/mL
Cl (IV pharmacokinetics): 12.82 mL/min/kg
T1/2 (IV pharmacokinetics): 35.4 min
Vss (IV pharmacokinetics): 0.36 L/kg
Microsomal (Rat): percent of compound remaining after 60 minutes [7]: 100%
EC50 ([3]; [3H]MK-801 binding, read-out: NMDAR2B log EC50 (converted)): < 1 nM
NMDAR2B: % maximal [3H]MK-801 binding relative to 1 mM glycine [3]: + (<100%=+)
Plasma (Human): percent of compound remaining after 60 minutes (Plasma stability (Human)): 100%
SMILES: C[C@@H](O)[C@H](NC(=O)C1CCC2(CNC2=O)N1)C(N)=O (single isomer, unassigned) [AQ-2]
Max Effect (mean number of 50 kHz USVs per 15 seconds) ([8]; 0.1 mg/kg): * (*: 6-10.9)

EC50 [1, 9]: < 1 nM
NMDAR2A: % maximal [3H]MK-801 binding relative to 1 mM glycine [2]: + (<100%=+)
NMDAR2B: % maximal [3H]MK-801 binding relative to 1 mM glycine [3]: − (−=0)
EC50 [4, 10]: > 100 nM
SMILES: CC(C)(C)OC(=O)N1CC2(CN(OCc3ccccc3)C2=O)CC12CN(OCc1ccccc1)C2=O (single isomer, unassigned) [AX, tert-butyl 2,8-bis(benzyloxy)-1,7-dioxo-2,8,10-triazadispiro[3.1.36.24]undecane-10-carboxylate]

EC50 [1, 9]: < 1 nM
NMDAR2A: % maximal [3H]MK-801 binding relative to 1 mM glycine [2]: + (<100%=+)
NMDAR2B: % maximal [3H]MK-801 binding relative to 1 mM glycine [3]: − (−=0)
EC50 [4, 10]: > 100 nM
Emax ([4]; 50 μM glutamate, relative to 1 mM glycine, read-out: NMDAR2B: % maximal [3H]MK-801 binding relative to 1 mM glycine): 0%
SMILES: C[C@@H](O)[C@H](NC1CN(C(=O)OC(C)(C)C)C2(CNC2=O)C1)C(N)=O (single isomer, unassigned) [CG]

EC50 [1, 9]: < 1 nM
NMDAR2A: % maximal [3H]MK-801 binding relative to 1 mM glycine [2]: + (<100%=+)
CSF Cmax [5]: 0 ng/mL
Brain Cmax [5]: 0 ng/mL
AUC(0-t) [5, 11]: 367 ng·h/mL
bioavailability [5, 11]: 3%
Tmax ([5]; Sprague Dawley, rat, plasma, po, read-out: Tmax): 49.8 min
Cmax ([5]; Sprague Dawley, rat, plasma, po, plasma, read-out: Cmax): 75.4 ng/mL
Microsomal (Human): percent of compound remaining after 60 minutes [6]: 84%
Plasma (Rat): percent of compound remaining after 60 minutes (Plasma stability (Rat)): 100%
AUC(0-t) (IV pharmacokinetics; [12]): 2800 ng·h/mL
clearance (IV pharmacokinetics; [12]): 11.8 mL/min/kg
half-life (IV pharmacokinetics; [12]): 190 min
C0 (IV pharmacokinetics; Sprague Dawley, rat, in vivo, iv, read-out: C0): 2230 ng/mL
Vd (IV pharmacokinetics; Sprague Dawley, rat, in vivo, iv, read-out: Vss): 0.61 L/kg
Microsomal (Rat): percent of compound remaining after 60 minutes [7]: 100%
NMDAR2B: % maximal [3H]MK-801 binding relative to 1 mM glycine [3]: + (<100%=+)
EC50 [4, 10]: < 1 nM
Plasma (Human): percent of compound remaining after 60 minutes (Plasma stability (Human)): 100%
SMILES: CC(C)C(=O)N1C(C(=O)N[C@H](C(N)=O)[C@@H](C)O)CCC12CNC2=O (single isomer, unassigned) [AS]
Max Effect (mean number of 50 kHz USVs per 15 seconds) [8]: ** (**: 11-16.9)

EC50 [1, 9]: < 1 nM
NMDAR2A: % maximal [3H]MK-801 binding relative to 1 mM glycine [2]: + (<100%=+)
NMDAR2B: % maximal [3H]MK-801 binding relative to 1 mM glycine [3]: ++ (>100%=++)
EC50 [4, 10]: < 1 nM
SMILES: CC(O)C(C(N)=O)N(C)CC1CCC2(CNC2=O)N1 (single isomer, unassigned) [CV]
